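Method: 48-hour compound exposure of cells in 96-well plates, five concentrations, linear interpolation of endpoints. GI50 = concentration required for 50% inhibition of growth.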 Activity calls are given as the source filed them. No stated cut-off is given here; in the data, active = GI50 up to about 1.1 µM and inactive = higher.
How the values were obtained:
Experiment in all cases: NCI-60 cell line screen, 48 h
SF-539 = system: SF-539
SF-268 = system: SF-268
HCT-15 = system: HCT-15
SN12C = system: SN12C
M14 = system: M14
OVCAR-4 = system: OVCAR-4
KM-20L2 = system: KM-20L2
NCI-H226 = system: NCI-H226
SK-OV-3 = system: SK-OV-3
SNB-75 = system: SNB-75
UACC-62 = system: UACC-62
HOP-62 = system: HOP-62
IGROV-1 = system: IGROV-1
UACC-257 = system: UACC-257
COLO 205 = system: COLO 205
MCF7 = system: MCF7
ACHN = system: ACHN
KM12 = system: KM12
T47D = system: T47D
Malme-3M = system: Malme-3M

Compound | GI50 (SF-539) | GI50 (SF-268) | GI50 (HCT-15) | GI50 (SN12C) | GI50 (M14) | GI50 (OVCAR-4) | GI50 (KM-20L2) | GI50 (NCI-H226) | GI50 (SK-OV-3) | GI50 (SNB-75) | GI50 (UACC-62) | GI50 (HOP-62) | GI50 (IGROV-1) | GI50 (UACC-257) | GI50 (COLO 205) | GI50 (MCF7) | GI50 (ACHN) | GI50 (KM12) | GI50 (T47D) | GI50 (Malme-3M)
COC(=O)c1ccc(NCc2cc(O)ccc2O)cc1 | 5.46 µM (inactive) | 11.2 µM (inactive) | 10.2 µM | 16.5 µM (inactive) | 18 µM (inactive) | 11.5 µM (inactive) | 28.4 µM (inactive) | 8.38 µM (inactive) | 14 µM (inactive) | 15.3 µM (inactive) | 10.4 µM (inactive) | 15.9 µM (inactive) | 9.89 µM (inactive) | 14.4 µM (inactive) | 12.6 µM (inactive) | 6.21 µM (inactive) | 10.2 µM (inactive) | 12.4 µM (inactive) | 1.65 µM (inactive) | 6.71 µM (inactive)
O=C1C=CC(=O)c2c1c1c(c3c2C2c4ccccc4C3c3ccccc32)C2c3ccccc3C1c1ccccc12 | 5.15 µM (inactive) | 7.64 µM (inactive) | 1.54 µM | 3.67 µM (inactive) | 1.7 µM (inactive) | 2.04 µM (inactive) | 4.46 µM (inactive) | 4.71 µM (inactive) | 15 µM (inactive) | 10.2 µM (inactive) | 2.07 µM (inactive) | 19.5 µM (inactive) | 7.06 µM (inactive) | 1.85 µM (inactive) | 1.5 µM (inactive) | 1.27 µM (inactive) | 1.73 µM (inactive) | 12.7 µM (inactive) | 1.41 µM (inactive) | 1.6 µM (inactive)
C=C1C(=O)O[C@H](c2ccoc2)C[C@@H]1[C@@]1(C)CCCC2(C)C(=O)OCC21 (stereo partly specified) | > 100 µM (inactive) | > 100 µM (inactive) | > 100 µM | > 100 µM (inactive) | > 100 µM (inactive) | > 100 µM (inactive) | > 100 µM (inactive) | > 100 µM (inactive) | > 100 µM (inactive) | > 100 µM (inactive) | > 100 µM (inactive) | > 100 µM (inactive) | > 100 µM (inactive) | > 100 µM (inactive) | > 100 µM (inactive) |  | > 100 µM (inactive) | > 100 µM (inactive) |  | > 100 µM (inactive)
Nc1nc(CCC(=O)Nc2cccc(C(F)(F)F)c2)cc(-c2cccc3ccccc23)n1 | > 100 µM (inactive) | > 100 µM (inactive) | > 100 µM | > 100 µM (inactive) | > 100 µM (inactive) | > 100 µM (inactive) | > 100 µM (inactive) | > 100 µM (inactive) | > 100 µM (inactive) | > 100 µM (inactive) | > 100 µM (inactive) | > 100 µM (inactive) | > 100 µM (inactive) | > 100 µM (inactive) | > 100 µM (inactive) |  | > 100 µM (inactive) | > 100 µM (inactive) |  | > 100 µM (inactive)

Source: ChEMBL document CHEMBL1201862, “PubChem BioAssay data set” (2004)
